According to patent US20040087571A1, “Methods of using CCR1 antagonists as immunomodulatory agents” (Pfizer Inc, priority 2002, published 2004):

SMILES | melting point
CC(C)(F)CC[C@H](C[C@H](O)[C@H](Cc1ccccc1)NC(=O)c1cnc2ccccc2n1)C(=O)NCCc1ccncc1 [Example 221, Quinoxaline-2-carboxylic acid [1(S)-benzyl-7-fluoro-2(S)-hydroxy-7-methyl-4(R)-(2-pyridin-4-yl-ethylcarbamoyl)-octyl]-amide] | 78 to 80 °C
O=C(N[C@@H](Cc1ccccc1)[C@@H](O)C[C@@H](Cc1ccccc1)C(=O)NO)c1cnc2ccccc2n1 [Example 276, Quinoxaline-2-carboxylic acid (1(S)-benzyl-2(S)-hydroxy-4(R)-hydroxycarbamoyl-5-phenyl-pentyl)-amide] | 190 to 192 °C
CNC(=O)[C@H](CC1CCC(F)(F)CC1)C[C@H](O)[C@H](Cc1ccccc1)NC(=O)c1cnc2ccccc2n1 [Example 132, Quinoxaline-2-carboxylic acid [1(S)-benzyl-5-(4,4-difluoro-cyclohexyl)-2(S)-hydroxy-4(R)-methylcarbamoyl-pentyl]-amide] | 170 to 172 °C
NC(=O)C1(C[C@H](O)[C@H](Cc2ccccc2)NC(=O)c2cnc3ccccc3n2)Cc2ccccc2C1 [Example 164, Quinoxaline-2-carboxylic acid [1(S)-benzyl-3-(2-carbamoyl-indan-2-yl)-2(S)-hydroxy-propyl]-amide] | 90 to 100 °C
NC(=O)[C@@H](C[C@H](O)[C@H](Cc1ccccc1)NC(=O)c1cnc2ccccc2n1)C1CCCCC1 [Example 169, Quinoxaline-2-carboxylic acid (1(S)-benzyl-4-carbamoyl-4(S)-cyclohexyl-2(S)-hydroxy-butyl)-amide] | 178 to 180 °C
CC(C)(F)CC[C@H](C[C@H](O)[C@H](Cc1ccccc1)NC(=O)c1cnc2ccccc2n1)C(=O)NCCc1cccnc1 [Example 220, Quinoxaline-2-carboxylic acid [1(S)-benzyl-7-fluoro-2(S)-hydroxy-7-methyl-4(R)-(2-pyridin-3-yl-ethylcarbamoyl)-octyl]-amide] | 154 to 155 °C
CC1CCC(O)([C@H](C[C@H](O)[C@H](Cc2ccccc2)NC(=O)c2cnc3ccccc3n2)C(=O)NO)CC1 (stereo partly drawn) [Example 283, Quinoxaline-2-carboxylic acid [1(S)-benzyl-2(S)-hydroxy-4(S)-hydroxycarbamoyl-4-(1-hydroxy-4-methyl-cyclohexyl)-butyl]-amide] | 114 to 116 °C
NC(=O)[C@@H](Cc1ccc(Cl)c(Cl)c1)C[C@H](O)[C@H](Cc1ccccc1)NC(=O)c1cnc2ccccc2n1 [Example 279, Quinoxaline-2-carboxylic acid [1(S)-benzyl-4(S)-carbamoyl-5-(3,4-dichloro-phenyl)-2(S)-hydroxy-pentyl]-amide] | 199 to 201 °C
O=C(N[C@@H](Cc1ccccc1)[C@@H](O)C[C@H](C(=O)NO)C1(O)CCCCCC1)c1cnc2ccccc2n1 [Example 291, Quinoxaline-2-carboxylic acid [1(S)-benzyl-2(S)-hydroxy-4(S)-hydroxycarbamoyl-4-(1-hydroxy-cycloheptyl)-butyl]-amide] | 118 to 119 °C
CNC(=O)C[C@H](C[C@H](O)[C@H](Cc1ccccc1)NC(=O)c1cnc2ccccc2n1)C(=O)NC [Example 151, 2(S)-{2(S)-hydroxy-4-phenyl-3(S)-[(quinoxaline-2-carbonyl)-amino]-butyl}-N1,N4-dimethyl-succinamide] | 178 to 180 °C
NC(=O)[C@@H](C[C@H](O)[C@H](Cc1ccccc1)NC(=O)c1cnc2ccccc2n1)C1CCCCCC1 [Example 181, Quinoxaline-2-carboxylic acid (1(S)-benzyl-4(S)-carbamoyl-4-cycloheptyl-2(S)-hydroxy-butyl)-amide] | 216 to 217 °C
CC(C)(F)CC[C@H](C[C@H](O)[C@H](Cc1ccccc1)NC(=O)c1cnc2ccccc2n1)C(=O)NCCc1c[nH]c2ccccc12 [Example 230, Quinoxaline-2-carboxylic acid {1(S)-benzyl-7-fluoro-2(S)-hydroxy-4(R)-[2-(1H-indol-3-yl)-ethylcarbamoyl]-7-methyl-octyl}-amide] | 107 to 108 °C
O=C(N[C@@H](Cc1ccccc1)[C@@H](O)C[C@H](C(=O)NO)C1(O)C2CCCC1CCC2)c1cnc2ccccc2n1 (stereo partly drawn) [Example 298, Quinoxaline-2-carboxylic acid [1(S)-benzyl-2(S)-hydroxy-4(S)-(9-hydroxy-bicyclo[3.3.1]non-9-yl)-4-hydroxycarbamoyl-butyl]-amide] | 130 to 132 °C
CNC(=O)[C@H](CC(C)C)C[C@H](O)[C@H](Cc1ccc(F)cc1)NC(=O)c1cnc2ccccc2n1 [Example 90, Quinoxaline-2-carboxylic acid [1(S)-(4-fluoro-benzyl)-2(S)-hydroxy-6-methyl-4(R)-methylcarbamoyl-heptyl]-amide] | 153 to 156 °C
NC(=O)[C@@H](C[C@H](O)[C@H](Cc1ccccc1)NC(=O)c1cnc2ccccc2n1)C1(O)CCCCCC1 [Example 290, Quinoxaline-2-carboxylic acid [1(S)-benzyl-4(S)-carbamoyl-2(S)-hydroxy-4-(1-hydroxy-cycloheptyl)-butyl]-amide] | 189 to 191 °C
CC1CC([C@H](C[C@H](O)[C@H](Cc2ccccc2)NC(=O)c2cnc3ccccc3n2)C(N)=O)CC(C)O1 (stereo partly drawn) [Example 244, Quinoxaline-2-carboxylic acid [1(S)-benzyl-4(S)-carbamoyl-4-(2,6-dimethyl-tetrahydro-pyran-4-yl)-2(S)-hydroxy-butyl]-amide] | 195 to 198 °C
CC(C)CC[C@H](C[C@H](O)[C@H](Cc1cscn1)NC(=O)c1cnc2ccccc2n1)C(N)=O [Example 178, Quinoxaline-2-carboxylic acid (4(R)-carbamoyl-2(S)-hydroxy-7-methyl-1(S)-thiazol-4-ylmethyl-octyl)-amide] | 195 to 196 °C
CC(C)(F)CC[C@H](C[C@H](O)[C@H](Cc1ccccc1)NC(=O)c1cnc2ccccc2n1)C(=O)NCc1ccccn1 [Example 211, Quinoxaline-2-carboxylic acid {1(S)-benzyl-7-fluoro-2(S)-hydroxy-7-methyl-4(R)-[(pyridin-2-ylmethyl)-carbamoyl]-octyl}-amide] | 138 to 140 °C
NC(=O)[C@@H](C[C@H](O)[C@H](Cc1ccccc1)NC(=O)c1ccc2ccccc2n1)C1CCCCC1 [Example 262, Quinoline-2-carboxylic acid (1(S)-benzyl-4(S)-carbamoyl-4-cyclohexyl-2(S)-hydroxy-butyl)-amide] | 208 to 210 °C
CC(C)(F)CC[C@H](C[C@H](O)[C@H](Cc1ccccc1)NC(=O)c1cnc2ccccc2n1)C(=O)NCCc1ccc(O)cc1 [Example 212, Quinoxaline-2-carboxylic acid {1(S)-benzyl-7-fluoro-2(S)-hydroxy-4(R)-[2-(4-hydroxy-phenyl)-ethylcarbamoyl]-7-methyl-octyl}-amide] | 138 to 140 °C
CCC(CC)[C@H](C[C@H](O)[C@H](Cc1ccccc1)NC(=O)c1cnc2ccccc2n1)C(N)=O [Example 203, Quinoxaline-2-carboxylic acid (1(S)-benzyl-4(S)-carbamoyl-5-ethyl-2(S)-hydroxy-heptyl)-amide] | 215 to 218 °C
CNC(=O)[C@H](CC(C)C)C[C@H](O)[C@H](CC(C)C)NC(=O)c1cnc2ccccc2c1 [Example 10, Quinoline-3-carboxylic acid (2(S)-hydroxy-1(S)-isobutyl-6-methyl-4(R)-methylcarbamoyl-heptyl)-amide] | 155 to 157 °C
